Data: patent publication US20220339178A1, “COMPOSITIONS AND METHODS FOR COGNITIVE PROTECTION OF POLLINATORS AGAINST PESTICIDES” (priority 2019, published 2022)

Experiments:
[1] = test system: bumblebee Bombus impatiens; assay: Olfactory conditioning of PER in bumblebees: self-administered rutin vs chronic fipronil; format: in vivo; details: bumblebees; score 0-10; self-administered 1 μM rutin six days; 6 nM fipronil feeder for the last three days (chronic)
Protocol: One colony of the bumblebee Bombus impatiens (Koppert Inc) was kept in laboratory conditions. Bees received pollen inside the nests and foraged to a 1M sugar-water feeder outside of the nest. Bees were collected while on the feeder and iced anesthetized to then be randomly assigned to one of four plastic containers where self-administration of one of two solutions was allowed to 10 bees out of two feeders (glass vials with 500 μL of solution each): i) 1 M sucrose water or ii) 1 μM Rutin (Sigma-Aldrich R5143) diluted in 1M sucrose water. Feeders were refilled each day for three days. On the night of the third day, one of the vials was replaced by a new one with one of two solutions: i) 1 M sucrose water or ii) 1M sucrose water+6 nM fipronil. Feeders were refilled each day for three more days, thus providing a chronic exposure to fipronil. On the night of the […] day, bees were iced anesthetized and yolked restrained in plastic pipettes. Thus, bees belonged to one of four treatments:
Control: self-administered sucrose water for six days
Rut: self-administered rutin for six days
Fipro: self-administered sucrose water for three days followed by three days of self-administered sucrose water (one feeder) and fipronil (one feeder).
Rut+Fipro: self-administered rutin for three days followed by three days of self-administered rutin (one feeder) and fipronil (one feeder).
All bees were blind-trained using olfactory conditioning of the proboscis extension response (PER). Briefly, bees were exposed to a presentation of 1-nonanol (Sigma-Aldrich) for 10 s. After 7 s of the onset of the odor presentation, the antenna was stimulated with 1.5 M sugar-water to elicit the PER. Following the PER, the bee was allowed to drink sugar-water for 3 s. Each paired presentation was considered a training trial and each individual received eleven training trials with an average intertrial interval of 10 minutes. After training, all bees were fed 20 μL of 1M sugar water and maintained in plastic boxes for 24 h until the retention test. […] Twenty-four hours after the last training trial the bees were presented with the conditioned odor for 10 s.
(§1) Learning for each individual was quantified as the number of conditioned PER responses across the trials. Thus, for each bee a learning score between zero and ten (0-10) was recorded.
(§2) Multiple comparisons were then run comparing learning score relative to Control bees using a non-parametric one or two-tailed Steel Method depending upon predictions. These comparisons informed us about the predicted impairment produced by the fipronil, the predicted innocuous effect of the rutin and the potential level of protection. Error due to multiple comparisons was controlled using the False Discovery Rate method (FDR-two stage sharpened method). In all cases corrected p-values (q-values) are presented.
(§3) Memory retention was quantified as a nominal variable (yes/no). Data were compared across treatments using a Chi-square test, followed by multiple comparisons of all treatments vs. Control. Error due to multiple comparisons was controlled using the FDR as indicated above. In all cases corrected p-values (q values) are presented.
Latency was quantified as a continuous variable between 0.5 s and 10 s. […]

[2] = test system: Honey bee foragers (Apis mellifera scutellata); assay: Classical conditioning of PER in honey bees: rutin, kaempferol, p-coumaric acid vs fipronil; format: in vivo
Protocol: Honey bee foragers (Apis mellifera scutellata) were captured from established hives at the Apiary of the Universidad del Rosario (Bogota, Colombia) between 08:00 h and 10:00 h. Bees were ice-anesthetized and harnessed in plastic tubes and maintained under laboratory conditions for the duration of the experiment (five days). Food was provided twice a day in a volumen of 10 μL and varied in composition according to experimental treatments.
Bees were randomly allocated to one of the following treatments administered twice a day for three consecutive days (all concentrations are final):
Control: 1M sucrose water (10 μL)
Rut: 1 μM rutin (Sigma-Aldrich: R5143)-1M sugar water (10 μL)
Kaemp:131 μM kaempferol (Sigma-Aldrich:K0133)+1M sugar water (10 μL)
p-Cou A: 200 μM p-coumaric acid (Sigma-Aldrich:C9008) diluted in 1M sugar water (10 μL)
Mix: 1 μM rutin, 131 μM kaempferol and 200 μM p-Coumaric acid): Bees fed with composition diluted in 1M sugar water (10 μL) fed twice a day for three days
On the fourth day, bees were randomly assigned to one of two treatments three hours before training:
Fipronil: 10 μL of 228 nM Fipronil (Astuto Invesa) in 1M sucrose water
Sucrose solution: 10 μL 1M sucrose water
Thus, bees belong to one of ten treatments: Control, Kaemp, Rut, p-Cou A, Mix, Fipro, Kaemp+Fipro, Rut+Fipro, p-Cou A+Fipro, Mix+Fipro.
Bees were trained using classical conditioning of the proboscis extension response (PER). Briefly, bees received a soft current of clean air for 15 seconds to allow bees to accommodate. Then a soft current of 1-hexanol (Sigma-Aldrich: 471402) was injected for 10 seconds. Six seconds after injection of 1-hexanol, one of the antennae was stimulated with sugar water (1.5M), which leads to the reflexive extension of the proboscis, and the bee was allowed to drink for 4 seconds. Thus, the reward and the stimulus overlapped for four seconds. This sequence, recognized as a training trial, was repeated eleven times. Time was determined using a metronome (2 Hz). Memory retention was tested 24 hours after the eleven training trials. […] 12 bees were trained each session. Training was conducted by an experimenter blind to treatment.
as §1
as §2, with “insecticides,” for “fipronil,”, “flavonoid” for “rutin”
as §3
Latency was quantified as a continuous variable between 0.5 s and 10 s. Data were compared across treatments using an ANOVA following a Log transformation to normalize the distribution (Shapiro-Wilk W Test after log transformation: p>0.05 for all treatments for the null hypothesis that data is from a normal distribution), followed by multiple comparisons between all treatments and the Control group (Dunnett's method). Error due to multiple comparisons was controlled using the FDR method as indicated above. In all cases corrected p-values (q-values) are presented.

C[C@@H]1O[C@@H](OC[C@H]2O[C@@H](Oc3c(-c4ccc(O)c(O)c4)oc4cc(O)cc(O)c4c3=O)[C@H](O)[C@@H](O)[C@@H]2O)[C@H](O)[C@H](O)[C@H]1O [Rutin]
learning score relative to Control bees [1]: not significantly different
latency of response relative to Control bees ([2]; Dunnett's method): not significantly different from Control
learning score relative to Control bees ([2]; honey bees, score 0-10, 1 μM rutin, 131 μM kaempferol, 200 μM p-coumaric acid or Mix twice a day for three days, 228 nM fipronil 10 μL three hours before training): not significantly different from Control bees
